Here are results for eleven compounds from patent publication US20260337190A1, “CRYSTAL FORM OF PYRIDINOPYRIMIDINONE COMPOUND, ACID SALT THEREOF, CRYSTAL FORM OF ACID SALT THEREOF, AND USE” (Wuhan Humanwell Innovative Drug Research and Development …, priority 2022, published 2026).

Structures are written as SMILES. Where a name gives a salt, the structure may show the parent alone.

Holding throughout (type): physicochemical
Data set [1] is described as follows: Solid state stability (25 °C/60% RH and 40 °C/75% RH, one week; XRPD and HPLC). The procedure:
The purity test, dynamic solubility test, and stability test in the assay were measured with an Agilent 1260 high-performance liquid chromatograph, and the salt formation molar ratio of ions was tested by ion chromatography, and the analytical conditions are shown in Table 5 and Table 6.

The nature of data set [2]: Dynamic solubility in water, SGF, FaSSIF and FeSSIF. The following applies: 37 °C. The procedure: Purified water was added to complete dissolution.
A short description of data set [3]: Variable temperature XRPD (VT-XRPD) of crystal forms. An excerpt:
The XRPD pattern was collected on an X-ray powder diffraction analyzer produced by PANalytacal, and the scanning parameters are shown in Table 2.
The crystal form A of the compound of formula I of Example 2 was identified using variable temperature XRPD (VT-XRPD).

Take `Cc1nc(N[C@H](C)c2cccc(S(F)(F)(F)(F)F)c2)c2cn(C3(CF)CC3)c(=O)cc2n1` [Crystal form A compound formula I]: the “HPLC results Purity (solid state stability)” value (“HPLC results Purity” for short) in data set [1] (25 °C/60% RH/open, 1 week) is reported as 97.13 area %; in data set [1] (40 °C/75% RH/open, 1 week) it was 97.14 area %; in data set [1] (Onset), 97.06 area %.

On to `Cc1nc(N[C@H](C)c2cccc(S(F)(F)(F)(F)F)c2)c2cn(C3(CF)CC3)c(=O)cc2n1` [Crystal form A ethanesulfonate salt], for which the “HPLC results Purity” value stood at 99.15 area % in data set [1] (25 °C/60% RH/open, 1 week); 99.29 area % in data set [1] (40 °C/75% RH/open, 1 week); 99.10 area % in data set [1] (Onset).

As to `Cc1nc(N[C@H](C)c2cccc(S(F)(F)(F)(F)F)c2)c2cn(C3(CF)CC3)c(=O)cc2n1` [Crystal form A fumarate salt], the “HPLC results Purity” value is on record as 98.67 area % in data set [1] (25 °C/60% RH/open, 1 week); 98.70 area % in data set [1] (40 °C/75% RH/open, 1 week); 98.67 area % in data set [1] (Onset).

As for `Cc1nc(N[C@H](C)c2cccc(S(F)(F)(F)(F)F)c2)c2cn(C3(CF)CC3)c(=O)cc2n1` [Crystal form A methanesulfonate salt], the “HPLC results Purity” value in data set [1] (25 °C/60% RH/open, 1 week) turned out to be 99.21 area %; in data set [1] (40 °C/75% RH/open, 1 week), 99.26 area %; in data set [1] (Onset), 99.18 area %.

With `Cc1nc(N[C@H](C)c2cccc(S(F)(F)(F)(F)F)c2)c2cn(C3(CF)CC3)c(=O)cc2n1` [Crystal form A of compound of formula I], the pH of filtrate in data set [2] (FaSSIF, 1 hour) is listed as 6.3; in data set [2] (FaSSIF, 4 hours) it was 6.3; in data set [2] (FaSSIF, 24 hours), 6.4; in data set [2] (FeSSIF, 1 hour), 5.1; in data set [2] (FeSSIF, 4 hours) it was 5.1; in data set [2] (FeSSIF, 24 hours), 5.1. Further, the pH of filtrate in data set [2] (H2O, 1 hour) is 5.4; in data set [2] (H2O, 4 hours), 6.0; in data set [2] (H2O, 24 hours), 5.8; in data set [2] (SGF, 1 hour) it was 3.2; in data set [2] (SGF, 4 hours), 3.3; in data set [2] (SGF, 24 hours), 3.2. In data set [2] (FeSSIF, 1 hour, 60 min), the “S: solubility” value was 2720 µg/mL.

In the case of `Cc1nc(N[C@H](C)c2cccc(S(F)(F)(F)(F)F)c2)c2cn(C3(CF)CC3)c(=O)cc2n1` [Crystal form A of ethanesulfonate salt], the pH of filtrate in data set [2] (FaSSIF, 1 hour) is given as 4.5; in data set [2] (FaSSIF, 4 hours), 4.2; in data set [2] (FaSSIF, 24 hours), 3.7; in data set [2] (FeSSIF, 1 hour), 4.8; in data set [2] (FeSSIF, 4 hours), 4.8; in data set [2] (FeSSIF, 24 hours) it was 4.7. In addition, the pH of filtrate in data set [2] (H2O, 1 hour) worked out at 2.9; in data set [2] (H2O, 4 hours), 3.1; in data set [2] (H2O, 24 hours), 2.8; in data set [2] (SGF, 1 hour), 1.6; in data set [2] (SGF, 4 hours), 1.5; in data set [2] (SGF, 24 hours), 1.5. For the same compound, the “S: solubility” value in data set [2] (FaSSIF, 4 hours, 240 min) was 1610 µg/mL; in data set [2] (FeSSIF, 4 hours, 240 min), 3620 µg/mL; in data set [2] (H2O, 1 hour, 60 min), 10060 µg/mL; in data set [2] (H2O, 4 hours, 240 min) it was 9810 µg/mL; in data set [2] (H2O, 24 hours, 1440 min), 10080 µg/mL; in data set [2] (SGF, 4 hours, 240 min), 10130 µg/mL. Besides, the “S: solubility” value in data set [2] (SGF, 24 hours, 1440 min) was 10110 µg/mL.

A word on the solubility: it is the concentration that dissolves in the medium under given conditions. Turning to `Cc1nc(N[C@H](C)c2cccc(S(F)(F)(F)(F)F)c2)c2cn(C3(CF)CC3)c(=O)cc2n1` [Crystal form A of fumarate salt], the pH of filtrate in data set [2] (FaSSIF, 1 hour) came to 4.8; in data set [2] (FaSSIF, 4 hours) it was 4.6; in data set [2] (FaSSIF, 24 hours), 4.3; in data set [2] (FeSSIF, 1 hour) it was 4.6; in data set [2] (FeSSIF, 4 hours) it was 4.8; in data set [2] (FeSSIF, 24 hours), 4.7. The pH of filtrate in data set [2] (H2O, 1 hour) stood at 4.2; in data set [2] (H2O, 4 hours), 4.2; in data set [2] (H2O, 24 hours), 4.1; in data set [2] (SGF, 1 hour), 1.8; in data set [2] (SGF, 4 hours), 2.0; in data set [2] (SGF, 24 hours), 1.7. Moreover, the solubility at 1 h in data set [2] (fessif, 1 hour, read-out: S: solubility) is 3510 µg/mL. Also, the solubility at 4 h in data set [2] (fessif, 4 hours, read-out: S: solubility) came to 2390 µg/mL. For the same compound, the solubility at 24 h in data set [2] (fessif, 24 hours, read-out: S: solubility) was 2180 µg/mL.

As to `Cc1nc(N[C@H](C)c2cccc(S(F)(F)(F)(F)F)c2)c2cn(C3(CF)CC3)c(=O)cc2n1` [Crystal form A of methanesulfonate salt], the pH of filtrate turned out to be 4.3 in data set [2] (FaSSIF, 1 hour); 4.4 in data set [2] (FaSSIF, 4 hours); 4.0 in data set [2] (FaSSIF, 24 hours); 4.8 in data set [2] (FeSSIF, 1 hour); 4.8 in data set [2] (FeSSIF, 4 hours); 4.8 in data set [2] (FeSSIF, 24 hours). In addition, the pH of filtrate was 3.5 in data set [2] (H2O, 1 hour); 3.5 in data set [2] (H2O, 4 hours); 3.1 in data set [2] (H2O, 24 hours); 1.7 in data set [2] (SGF, 1 hour); 1.8 in data set [2] (SGF, 4 hours); 1.6 in data set [2] (SGF, 24 hours). Moreover, in data set [2] (FeSSIF, 1 hour, 60 min), the “S: solubility” value amounted to 4040 µg/mL.

Regarding `Cc1nc(N[C@H](C)c2cccc(S(F)(F)(F)(F)F)c2)c2cn(C3(CF)CC3)c(=O)cc2n1` [Crystal form B citrate salt], the “HPLC results Purity” value is listed as 99.00 area % in data set [1] (25 °C/60% RH/open, 1 week); 99.01 area % in data set [1] (40 °C/75% RH/open, 1 week); 98.92 area % in data set [1] (Onset).

As for `Cc1nc(N[C@H](C)c2cccc(S(F)(F)(F)(F)F)c2)c2cn(C3(CF)CC3)c(=O)cc2n1` [Crystal form B of citrate salt], the pH of filtrate was 4.5 in data set [2] (FaSSIF, 1 hour); 3.9 in data set [2] (FaSSIF, 4 hours); 3.6 in data set [2] (FaSSIF, 24 hours); 4.8 in data set [2] (FeSSIF, 1 hour); 4.6 in data set [2] (FeSSIF, 4 hours); 4.5 in data set [2] (FeSSIF, 24 hours). Moreover, the pH of filtrate in data set [2] (H2O, 1 hour) stood at 3.5; in data set [2] (H2O, 4 hours), 3.5; in data set [2] (H2O, 24 hours) it was 3.3; in data set [2] (SGF, 1 hour), 2.5; in data set [2] (SGF, 4 hours), 2.6; in data set [2] (SGF, 24 hours) it was 2.4.

In the case of `Cc1nc(N[C@H](C)c2cccc(S(F)(F)(F)(F)F)c2)c2cn(C3(CF)CC3)c(=O)cc2n1` [crystal form B of the compound of formula I], the “crystal form on exposure to air” value in data set [3] (exposed to air after N2 purging/heating) is recorded as “transcrystallized back to the crystal form A”. Besides, in data set [3] (under N2, 100 °C, cooled to 30 °C), the “crystal form on heating to 100 °C and cooling to 30 °C” value was “No crystal change was observed”.
